{"source": "paper PMC6220272", "about": "“Scaffold-Hopping from Synthetic Drugs by Holistic Molecular Representation” (Scientific Reports, 2018)", "system": "HepG2 cells", "assay": "Toxicity assay (WST-1, water-soluble tetrazolium assay)", "format": "cell-based", "details": "WST-1, HepG2 cells, 48 h", "protocol": "WST-1 assay (Roche Diagnostics International AG, Rotkreuz, Schweiz) was performed according to manufacturer’s protocol in HepG2 cells. Cells were incubated with the test compounds (final concentrations: 1 µM, 10 µM, 30 µM, 50 µM and 100 µM) in DMEM/1% DMSO, and DMEM/1% DMSO as negative control. After 48 h, WST reagent (Roche Diagnostics International AG) was added to each well according to manufacturer’s instructions. After 45 min incubation, absorption (450 nm/reference: 620 nm) was determined with a Tecan Infinite M200 (Tecan Deutschland GmbH). Each experiment was set up in duplicates and repeated in four independent experiments. Results are expressed as mean ± SEM% of DMSO (0.1%) control.", "data": [{"smiles": "CC(C)(C)c1cc(/C=N/NC(=O)c2ccc(N)cc2)cc(C(C)(C)C)c1", "note": "[Compound 7]", "values": [{"measurement": "concentration up to which no cytotoxic effect was seen", "value": "> 100", "unit": "µM"}]}]}
